Reference: patent publication US9241928B2, “Antimicrobial compounds” (The General Hospital Corporation, priority 2009, dated 2016)

Experiments:
Format in all cases: in vivo, Caenorhabditis elegans
[1] = tested on: F35E12.5::GFP; test: Immune GFP reporter induction, transgene acIs101; conditions: compound-exposed versus DMSO-exposed animals, visual
From the text: (§1) Caenorhabditis elegans strains were maintained on Escherichia coli OP50 as described in Brenner, Genetics, 1974, 77:71-94. Wildtype N2 nematodes carrying integrated transgenes acIs219 (AU78), acIs101(AY101), agIs17(AU133), or agIs26 (AU185) (see (1) Shivers, et al., PLoS. Genet. 2010, 6: e1000892, (2) Bolz et al., J. Biol. Chem. 2010, 285:10832-40, (3) Estes et al., Proc. Natl. Acad. Sci., 2010, 107:2153-8, and (4) Irazoqui et al., Proc. Natl. Acad. Sci., 2008, 105:17469-74) were used to assay the immunomodulatory activity of candidate compounds. […] Fold change was calculated using the Pfaffl method (see Pfaffl et al., Nucleic Acids Res., 2001, 29:e45).
(§2) Without wishing to be bound by theory, it was hypothesized that a subset of these compounds cured nematode infection by directly activating the innate immune response of the animal. […] First, the inventors studied four C. elegans strains in which the promoter of the nematode immune response genes T24B8.5, F35E12.5, irg-1 and clec-60 were individually fused to GFP, generating transgenes acIs219 (AU78), acIs101(AY101), agIs17(AU133), or agIs26 (AU185), respectively, thereby allowing a visual readout of gene activity in each strain. […]

[2] = tested on: T24B8.5::GFP; test: Immune GFP reporter induction, transgene acIs219; conditions: compound-exposed versus DMSO-exposed animals, visual
From the text: as §1, with “compounds. For qRT-PCR experiments, RNA was extracted from synchronized young adult nematodes exposed to a candidate compound or DMSO (as a control) using TRI Reagent and reverse transcribed using the Retroscript kit (Ambion). This cDNA was then subjected to qRT-PCR analysis using SYBR green detection on a CFX1000 machine (Bio-Rad, http://www.bio-rad.com). Primers for qRT-PCR were obtained from published sequences (see Irazoqui et al., Proc. Natl. Acad. Sci., 2008, 105:17469-74 and Troemel et al., PLoS Genet. 2006, 2:e183).” for “compounds.”
Without wishing to be bound by theory, it was hypothesized that a subset of these compounds cured nematode infection by directly activating the innate immune response of the animal. To test this hypothesis, a multi-faceted approach was used. First, the inventors studied four C. elegans strains in which the promoter of the nematode immune response genes T24B8.5, F35E12.5, irg-1 and clec-60 were individually fused to GFP, generating transgenes acIs219 (AU78), acIs101(AY101), agIs17(AU133), or agIs26 (AU185), respectively, thereby allowing a visual readout of gene activity in each strain. Using these reporter strains, the ability of 33 compounds previously shown to have anti-Enterococcal killing activity in the C. elegans infection assay (24 of which have been described above) were tested for their ability to modulate the nematode immune response.

[3] = tested on: clec-60::GFP; test: Immune GFP reporter induction, transgene agIs26; conditions: compound-exposed versus DMSO-exposed animals, visual
From the text: as §1, §2

[4] = tested on: C17H12.8; test: qRT-PCR of immune response gene expression; conditions: 20 μg/mL versus DMSO
From the text: as §1, with “compounds. For qRT-PCR experiments, RNA was extracted from synchronized young adult nematodes exposed to a candidate compound or DMSO (as a control) using TRI Reagent and reverse transcribed using the Retroscript kit (Ambion). This cDNA was then subjected to qRT-PCR analysis using SYBR green detection on a CFX1000 machine (Bio-Rad, http://www.bio-rad.com). Primers for qRT-PCR were obtained from published sequences (see Irazoqui et al., Proc. Natl. Acad. Sci., 2008, 105:17469-74 and Troemel et al., PLoS Genet. 2006, 2:e183).” for “compounds.”
(§3) By using the assay described above, the inventors identified five compounds (i.e., Compounds 11, 18, 20, 25, and 26) that robustly and reproducibly activated the immune GFP reporters (see FIG. 5 and Table 3) or activated selected immune response genes as determined by quantitative RT-PCR analysis (see Table 4). For the latter experiments, RNA was isolated from wild-type C. elegans N2 or pmk-1 mutant animals exposed to the candidate immunomodulatory compounds at 20 μg/mL and from animals exposed to DMSO. The inventors tested several immune response genes in compound-exposed animals that are known to be regulated by PMK-1, the p38 Mitogen Acitvated Protein kinase homolog, an evolutionary-conserved, central regulator of nematode immunity. The inventors also used qRT-PCR to measure the activation of several immune response genes that are known to be activated independently of PMK-1. […] Thus, without wishing to be bound by theory, it is believed that a subset of the compounds identified in the screen for novel anti-infective compounds directly stimulate the immune response of the nematode and that these compounds act both by directly stimulating the PMK-1 pathway and by unidentified parallel immune response pathways.

[5] = tested on: C49G7.5; test: qRT-PCR of immune response gene expression; conditions: 20 μg/mL versus DMSO
From the text: as §1, with “compounds. For qRT-PCR experiments, RNA was extracted from synchronized young adult nematodes exposed to a candidate compound or DMSO (as a control) using TRI Reagent and reverse transcribed using the Retroscript kit (Ambion). This cDNA was then subjected to qRT-PCR analysis using SYBR green detection on a CFX1000 machine (Bio-Rad, http://www.bio-rad.com). Primers for qRT-PCR were obtained from published sequences (see Irazoqui et al., Proc. Natl. Acad. Sci., 2008, 105:17469-74 and Troemel et al., PLoS Genet. 2006, 2:e183).” for “compounds.”
as §3

[6] = tested on: F35E12.5; test: qRT-PCR of immune response gene expression; conditions: 20 μg/mL versus DMSO
From the text: as §1, with “compounds. For qRT-PCR experiments, RNA was extracted from synchronized young adult nematodes exposed to a candidate compound or DMSO (as a control) using TRI Reagent and reverse transcribed using the Retroscript kit (Ambion). This cDNA was then subjected to qRT-PCR analysis using SYBR green detection on a CFX1000 machine (Bio-Rad, http://www.bio-rad.com). Primers for qRT-PCR were obtained from published sequences (see Irazoqui et al., Proc. Natl. Acad. Sci., 2008, 105:17469-74 and Troemel et al., PLoS Genet. 2006, 2:e183).” for “compounds.”
as §3

[7] = tested on: F53E10.4; test: qRT-PCR of immune response gene expression; conditions: 20 μg/mL versus DMSO
From the text: as §1, with “compounds. For qRT-PCR experiments, RNA was extracted from synchronized young adult nematodes exposed to a candidate compound or DMSO (as a control) using TRI Reagent and reverse transcribed using the Retroscript kit (Ambion). This cDNA was then subjected to qRT-PCR analysis using SYBR green detection on a CFX1000 machine (Bio-Rad, http://www.bio-rad.com). Primers for qRT-PCR were obtained from published sequences (see Irazoqui et al., Proc. Natl. Acad. Sci., 2008, 105:17469-74 and Troemel et al., PLoS Genet. 2006, 2:e183).” for “compounds.”
as §3

[8] = tested on: F56D6.2; test: qRT-PCR of immune response gene expression; conditions: 20 μg/mL versus DMSO
From the text: as §1, with “compounds. For qRT-PCR experiments, RNA was extracted from synchronized young adult nematodes exposed to a candidate compound or DMSO (as a control) using TRI Reagent and reverse transcribed using the Retroscript kit (Ambion). This cDNA was then subjected to qRT-PCR analysis using SYBR green detection on a CFX1000 machine (Bio-Rad, http://www.bio-rad.com). Primers for qRT-PCR were obtained from published sequences (see Irazoqui et al., Proc. Natl. Acad. Sci., 2008, 105:17469-74 and Troemel et al., PLoS Genet. 2006, 2:e183).” for “compounds.”
as §3

[9] = tested on: T24B8.5; test: qRT-PCR of immune response gene expression; conditions: 20 μg/mL versus DMSO
From the text: as §1, with “compounds. For qRT-PCR experiments, RNA was extracted from synchronized young adult nematodes exposed to a candidate compound or DMSO (as a control) using TRI Reagent and reverse transcribed using the Retroscript kit (Ambion). This cDNA was then subjected to qRT-PCR analysis using SYBR green detection on a CFX1000 machine (Bio-Rad, http://www.bio-rad.com). Primers for qRT-PCR were obtained from published sequences (see Irazoqui et al., Proc. Natl. Acad. Sci., 2008, 105:17469-74 and Troemel et al., PLoS Genet. 2006, 2:e183).” for “compounds.”
as §3

[10] = tested on: irg-1; test: qRT-PCR of immune response gene expression; conditions: 20 μg/mL versus DMSO
From the text: as §1, with “compounds. For qRT-PCR experiments, RNA was extracted from synchronized young adult nematodes exposed to a candidate compound or DMSO (as a control) using TRI Reagent and reverse transcribed using the Retroscript kit (Ambion). This cDNA was then subjected to qRT-PCR analysis using SYBR green detection on a CFX1000 machine (Bio-Rad, http://www.bio-rad.com). Primers for qRT-PCR were obtained from published sequences (see Irazoqui et al., Proc. Natl. Acad. Sci., 2008, 105:17469-74 and Troemel et al., PLoS Genet. 2006, 2:e183).” for “compounds.”
as §3

[11] = tested on: immune response genes; test: qRT-PCR of immune response genes, PMK-1 dependence (overall); conditions: 20 μg/mL, N2 or pmk-1 mutant animals
From the text: as §1, with “compounds. For qRT-PCR experiments, RNA was extracted from synchronized young adult nematodes exposed to a candidate compound or DMSO (as a control) using TRI Reagent and reverse transcribed using the Retroscript kit (Ambion). This cDNA was then subjected to qRT-PCR analysis using SYBR green detection on a CFX1000 machine (Bio-Rad, http://www.bio-rad.com). Primers for qRT-PCR were obtained from published sequences (see Irazoqui et al., Proc. Natl. Acad. Sci., 2008, 105:17469-74 and Troemel et al., PLoS Genet. 2006, 2:e183).” for “compounds.”
By using the assay described above, the inventors identified five compounds (i.e., Compounds 11, 18, 20, 25, and 26) that robustly and reproducibly activated the immune GFP reporters (see FIG. 5 and Table 3) or activated selected immune response genes as determined by quantitative RT-PCR analysis (see Table 4). For the latter experiments, RNA was isolated from wild-type C. elegans N2 or pmk-1 mutant animals exposed to the candidate immunomodulatory compounds at 20 μg/mL and from animals exposed to DMSO. The inventors tested several immune response genes in compound-exposed animals that are known to be regulated by PMK-1, the p38 Mitogen Acitvated Protein kinase homolog, an evolutionary-conserved, central regulator of nematode immunity. The inventors also used qRT-PCR to measure the activation of several immune response genes that are known to be activated independently of PMK-1. […]

Row | SMILES | immune reporter induction F35E12.5::GFP [1] | immune reporter induction T24B8.5::GFP [2] | immune reporter induction clec-60::GFP [3] | C17H12.8 expression, average fold-change ([4]; genotype N2) | C17H12.8 expression, average fold-change ([4]; genotype pmk-1(km25)) | C49G7.5 expression, average fold-change ([5]; genotype N2) | C49G7.5 expression, average fold-change ([5]; genotype pmk-1(km25)) | F35E12.5 expression, average fold-change ([6]; genotype N2) | F35E12.5 expression, average fold-change ([6]; genotype pmk-1(km25)) | F53E10.4 expression, average fold-change ([7]; genotype N2) | F53E10.4 expression, average fold-change ([7]; genotype pmk-1(km25)) | F56D6.2 expression, average fold-change ([8]; genotype N2) | F56D6.2 expression, average fold-change ([8]; genotype pmk-1(km25)) | T24B8.5 expression, average fold-change ([9]; genotype N2) | T24B8.5 expression, average fold-change ([9]; genotype pmk-1(km25)) | irg-1 expression, average fold-change ([10]; genotype N2) | irg-1 expression, average fold-change ([10]; genotype pmk-1(km25)) | PMK-1 dependence of immune response gene activation [11]
1 | NNc1ccc2c(Cl)cc(Cl)c(O)c2n1 [Compound 11] | + | + | + | 18.0 fold-change | 1.1 fold-change | 0.9 fold-change | 2.5 fold-change | 20.23 fold-change | 6.7 fold-change | 1.0 fold-change | 1.7 fold-change | 15.1 fold-change | 1.4 fold-change | 57.0 fold-change | 3.2 fold-change | 1.7 fold-change | 4.7 fold-change | preferentially activated PMK-1-dependent immune response genes
2 | Cc1ccc(Nc2nc(N)c3ccccc3n2)cc1Cl [Compound 26] | + | + | – | 1.1 fold-change | 0.4 fold-change | 1.8 fold-change | 6.3 fold-change | 156.1 fold-change | 149.0 fold-change | 0.3 fold-change | 0.8 fold-change | 13.1 fold-change | 0.6 fold-change | 1.6 fold-change | 1.8 fold-change | 1.1 fold-change | 4.0 fold-change | activated at least one immune response gene in the nematode in a manner independent of PMK-1
